# Measured values as given in publication PMC12153356, “An antisense oligomer conjugate with unpredicted bactericidal activity against Fusobacterium nucleatum” (mBio, 2025).
# Test system: Salmonella enterica serovar Typhimurium SL1344
# Test: Growth inhibition assay
# Format: cell-based
# Conditions: 10 µM, MHB, 1 × 10^5 CFU/mL input, aerobic, 24 h
# Experimental: Aerobic bacterial culture was conducted with E. coli K12 MG1655 (provided by D. Lee), E. coli Nissle 1917, and S. enterica serovar Typhimurium SL1344 (provided by D. Bumann, Biocenter Basel, Switzerland). The strains were streaked on lysogeny broth plates, incubated o.n. at 37°C and cultured in non-cation-adjusted MHB with aeration at 37°C and 220 rpm constant shaking.
# To determine the MIC value, broth microdilutions were performed according to the standard protocol with some modifications ([119]). An overnight bacterial culture was diluted in a fresh ColB medium and grown to OD600 0.5 (mid-exponential phase). Fusobacteria were then diluted 1:2,500 or 1:250 in fresh MHB to obtain 1 × 10^5 CFU/mL or 1 × 10^6 CFU/mL as indicated. To determine the growth inhibition of P. gingivalis, an o.n. culture grown in BHI+ was diluted 1:1,500 in MHB to obtain 1 × 10^5 CFU/mL. E. coli K12, E. coli Nissle 1917, and S. enterica o.n. cultures grown in MHB were diluted 1:1,800 in fresh MHB to obtain 1 × 10^5 CFU/mL. […] Bacterial growth was monitored by measuring OD600 every 20 min with constant shaking in a plate reader (Biotek) under the normal atmospheric environment or positioned in the anaerobic chamber with double orbital shaking every 20 min prior to each measurement with 237 cpm at 37°C for 120 h.
substance,measurement,value
"(RXR)4XB-GACATAATTGT [FUS79, non-targeting (RXR)4XB-PNA 11-mer control, (RXR)4XB-…]",Effect on growth of S. enterica,no specific bactericidal effect
